Data from patent US7531541B2, “Partial mGluR5 antagonists for treatment of anxiety and CNS disorders” (Vanderbilt University, priority 2005, dated 2009).
Several values for one entry are separate records, joined by “and”; a condition that tells them apart may be missing. Equal values may be shown once.

Tests used:
[1] = test system: mGluR5 receptor responses in STN neurons; assay: Whole-cell electrophysiology in STN neurons of rat midbrain slices (DHPG-induced depolarization); type: cell-based
mGluR5 [2] = biological target: T1, mGluR5 (Rattus norvegicus, UniProt P31424); assay: Calcium fluorescence assay (FDSS) in rat cortical astrocytes; type: cell-based; conditions: for potentiation of response to suboptimal glutamate: DFB 30 μM, CDPPB 3 μM; for effect on glutamate concentration response curve: 10 μM (maximally effective) compound, range of glutamate concentrations; for effect on glutamate-induced calcium response: 10 μM compound, 5 min; for effect on glutamate-induced calcium response / maximal reduction of the response to glutamate / antagonist activity across a range of concentrations / IC50: nearly maximal glutamate; for maximal inhibition relative to that of MPEP: % of maximal inhibition by MPEP; for block of MPEP-induced inhibition of the glutamate response: compound added 1 min before; for rightward shift of concentration response curve compared to MPEP: antagonism of mGluR5-mediated calcium increase; for activation of mGluR5 when added alone: compound alone; for maximal reduction of the response to glutamate: concentration response; for IC50: read-out: IC50 at inhibiting mGluR5 receptor responses
T1 construct: they provide a native system that endogenously expresses high levels of mGluR5; endogenous in cells; host or cells: primary (secondary-culture) rat cortical astrocytes from Sprague Dawley pups
Experimental: Metabotropic glutamate receptor 5induced phosphorylation of extracellular signal-regulated kinase in astrocytes depends on transactivation of the epidermal growth factor receptor. J Neurosci 21:9619-28). In brief, neocortices from 2-4 day old Sprague Dawley rat pups were dissected and dissociated in DMEM by trituration with 1 ml pipette tips. The cells were then centrifuged and resuspended in DMEM (containing 1 mM sodium pyruvate, 2 mM L-glutamine, PenStrep) supplemented with 10% FBS in T75 tissue culture flasks; the medium was changed the next day. Cell cultures were maintained at 37° C. in an atmosphere of 95% air/5% CO2 for 6-8 days. Cells were shaken overnight (280-310 rpm) to remove oligodendrocytes and microglia.
Secondary astrocytes were trypsinzed and replated into poly-D-Lysine coated 384 well plates (Greiner) at 10K cells/well in 20 μL growth medium (DMEM containing 10% FBS, 20 mM HEPES, 2 mM L-glutamine and antibiotic/antimycotic). The second day the medium was changed to growth medium and G-5 supplement (Invitrogen) containing EGF (10 ng/ml), basic fibroblast growth factor (5 ng/ml), insulin (5 μg/ml), and other factors. The cells were nearly confluent within 2 days and resembled the polygonal astrocytic appearance in vivo. The fourth day, approximately 20 hours before experiments, the medium was changed to glutamine free DMEM containing 5% dialyzed FBS, 20 mM HEPES and antibiotic/antimycotic. On day five medium was removed from the plate and the cells incubated with 20 μL of 1 μM Fluo-4AM (Molecular Probes) in assay buffer (Hank's balanced salt solution, 20 mM HEPES and 2.5 mM Probenecid) for 1 h at 37° C. Dye was removed and 20 μL assay buffer was added. Ca2+ flux was measured using the Functional Drug Screening System (FDSS6000 by Hamamatsu).
Compounds were diluted into assay buffer to a 5× stock which was applied to the cells. For neutral measurements, cells were preincubated with the test compounds for 1 min, potentiator or antagonist was added, and the cells incubated for an additional 5 min. Cells were then stimulated for 2 min with an appropriate concentration of glutamate. For potentiator and antagonist measurements, cells were preincubated with the test compounds for 5 min and then stimulated for 2 min with an appropriate concentration of glutamate. Data were collected at ¼ Hz during the preincubation period and at 1 Hz during the glutamate addition phase of the experiment.
Raw data were normalized in a three step process: (1) Cell number and non-uniform illumination/imaging were controlled for based on the initial readings for the well, (2) the signal amplitude for the data point immediately preceding the agonist addition was subtracted from each point on the trace, (3) data were normalized to the maximal response for each experiment. Concentration response curves were generated using Prism 4.0 (GraphPad).

[3] = biological target: T2, rat mGluR5 (allosteric MPEP site) (Rattus norvegicus, UniProt P31424); assay: [3H]methoxyPEPy radioligand binding assay, membranes of HEK293A cells stably expressing rat mGluR5; conditions: for Ki: 2 nM [3H]methoxyPEPy, 60 min room temperature, rat mGluR5 HEK293A membranes, read-out: Ki, displacement of [3H]methoxyPEPy binding; for inhibition of binding of [3H]methoxyPEPy to mGluR5 membranes: extent of displacement, in words
T2 construct: expressed in transfected cells
Experimental: FIG. 3. […] Samples were filtered through glass fiber filters and washed extensively. […] Concentration response curves were generated from the means of three separate experiments. Error bars represent SEM.
Membranes were prepared from HEK293A cells stably expressing rat mGluR5. Compounds were diluted into assay buffer (50 mM Tris/0.9% NaCl, pH 7.4) to a 5× stock and 20 μL test compound added to each well of a 96 well assay plate. 60 μL aliquots of membranes diluted in assay buffer (10 μg/well) were added to each well. 20 μL [3H]methoxyPEPy (2 nM final concentration in assay buffer) was added and the reaction incubated at room temperature for 60 min with shaking. After the incubation period, the membrane-bound ligand was separated from free ligand by filtration through glass-fiber 96 well filter plates (Unifilter-96, GF/B by Perkin Elmer). The contents of each well was transferred simultaneously to the filter plate and washed 4 times with assay buffer (Brandel Cell Harvester). 30 μL scintillation fluid was added to each well and the membrane-bound radioactivity determined by scintillation counting (TopCount by Perkin-Elmer).

mGluR5 [4] = biological target: T3, mGluR5 (Homo sapiens, UniProt P41594); conditions: recombinant CHO cells, Published US Application 2001/0056084; cited from earlier work
T3 construct: host or cells: CHO cells transfected with mGluR5 (earlier work)

[5] = 5MPEP 3, 10, 30 μM on MPEP concentration response

T1 sequence (P31424 21-1203): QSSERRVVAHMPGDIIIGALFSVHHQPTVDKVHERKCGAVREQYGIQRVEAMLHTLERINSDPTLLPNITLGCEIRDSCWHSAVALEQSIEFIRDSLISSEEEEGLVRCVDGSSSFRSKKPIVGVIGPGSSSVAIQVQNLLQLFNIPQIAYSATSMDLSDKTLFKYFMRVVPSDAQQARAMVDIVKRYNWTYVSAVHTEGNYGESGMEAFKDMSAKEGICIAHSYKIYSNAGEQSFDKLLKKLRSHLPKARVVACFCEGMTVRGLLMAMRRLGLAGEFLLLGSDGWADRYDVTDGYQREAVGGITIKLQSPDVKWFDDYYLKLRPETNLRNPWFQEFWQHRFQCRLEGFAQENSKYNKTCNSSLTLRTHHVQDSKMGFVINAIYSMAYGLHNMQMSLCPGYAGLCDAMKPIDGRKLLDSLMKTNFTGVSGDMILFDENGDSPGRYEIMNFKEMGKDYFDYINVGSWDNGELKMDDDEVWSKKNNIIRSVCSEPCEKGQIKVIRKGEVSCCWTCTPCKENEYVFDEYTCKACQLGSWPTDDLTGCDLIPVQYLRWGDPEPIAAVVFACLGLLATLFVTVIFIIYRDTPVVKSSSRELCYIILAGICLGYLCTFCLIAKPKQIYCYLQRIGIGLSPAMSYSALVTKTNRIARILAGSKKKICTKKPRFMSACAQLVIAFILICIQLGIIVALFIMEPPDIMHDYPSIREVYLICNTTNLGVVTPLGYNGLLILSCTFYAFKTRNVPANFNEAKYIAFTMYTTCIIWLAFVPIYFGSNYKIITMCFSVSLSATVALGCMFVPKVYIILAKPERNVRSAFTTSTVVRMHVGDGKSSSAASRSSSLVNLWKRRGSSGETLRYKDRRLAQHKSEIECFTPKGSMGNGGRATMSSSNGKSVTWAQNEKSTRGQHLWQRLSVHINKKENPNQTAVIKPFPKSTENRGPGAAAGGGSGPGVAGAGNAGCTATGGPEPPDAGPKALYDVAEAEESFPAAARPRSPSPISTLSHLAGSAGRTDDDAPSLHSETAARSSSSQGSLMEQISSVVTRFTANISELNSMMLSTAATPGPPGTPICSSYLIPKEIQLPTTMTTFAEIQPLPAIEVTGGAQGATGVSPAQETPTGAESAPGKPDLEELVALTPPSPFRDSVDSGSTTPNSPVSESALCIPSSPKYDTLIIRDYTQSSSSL
T2 sequence (P31424 21-1203): as above
T3 sequence (P41594 21-1212): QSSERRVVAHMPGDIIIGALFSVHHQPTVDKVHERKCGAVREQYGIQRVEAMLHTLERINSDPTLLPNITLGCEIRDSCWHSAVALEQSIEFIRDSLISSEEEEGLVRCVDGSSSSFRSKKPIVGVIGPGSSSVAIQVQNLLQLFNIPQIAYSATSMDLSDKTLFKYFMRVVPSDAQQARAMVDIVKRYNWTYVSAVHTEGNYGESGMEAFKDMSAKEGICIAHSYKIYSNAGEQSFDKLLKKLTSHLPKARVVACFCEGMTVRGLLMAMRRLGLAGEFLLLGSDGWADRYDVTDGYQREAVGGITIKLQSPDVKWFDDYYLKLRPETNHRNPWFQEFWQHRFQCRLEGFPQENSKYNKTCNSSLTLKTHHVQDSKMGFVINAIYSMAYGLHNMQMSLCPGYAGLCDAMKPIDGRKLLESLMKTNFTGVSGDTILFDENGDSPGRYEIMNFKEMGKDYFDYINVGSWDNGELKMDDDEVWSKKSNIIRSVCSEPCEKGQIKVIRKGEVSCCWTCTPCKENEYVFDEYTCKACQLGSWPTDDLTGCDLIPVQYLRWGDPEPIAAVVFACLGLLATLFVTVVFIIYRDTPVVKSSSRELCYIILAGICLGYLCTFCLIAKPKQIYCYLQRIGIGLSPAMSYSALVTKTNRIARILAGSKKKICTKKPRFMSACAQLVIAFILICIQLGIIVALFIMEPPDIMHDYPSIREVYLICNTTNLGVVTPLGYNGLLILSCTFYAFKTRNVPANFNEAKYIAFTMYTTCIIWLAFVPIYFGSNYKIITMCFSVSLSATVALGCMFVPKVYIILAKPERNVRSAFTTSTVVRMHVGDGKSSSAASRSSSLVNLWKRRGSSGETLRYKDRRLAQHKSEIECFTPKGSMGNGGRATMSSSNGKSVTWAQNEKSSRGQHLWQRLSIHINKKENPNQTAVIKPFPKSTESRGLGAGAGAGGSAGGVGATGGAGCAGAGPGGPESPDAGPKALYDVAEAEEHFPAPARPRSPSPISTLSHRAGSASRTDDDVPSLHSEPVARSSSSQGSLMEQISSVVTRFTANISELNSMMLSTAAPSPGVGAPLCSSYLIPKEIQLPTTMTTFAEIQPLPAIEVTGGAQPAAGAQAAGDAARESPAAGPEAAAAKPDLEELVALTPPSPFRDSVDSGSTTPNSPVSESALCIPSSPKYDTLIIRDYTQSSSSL

N#Cc1cccc(C(=O)Nc2cc(-c3ccccc3)nn2-c2ccccc2)c1 [CDPPB, 3-cyano-N-(I,3-diphenyl-1 H-pyrazol-5-yl)benzamide, reference compound]
DHPG-induced depolarization in presence of CDPPB ([1]; DHPG 10 μM + CDPPB 10 μM): 13.39±1.66 mV
potentiation of response to suboptimal glutamate (mGluR5 [2]): potentiated

COc1cccc(C#Cc2ccc(C)cn2)c1 [M-5MPEP, 2-(3-Methoxyphenylethynyl)-5-methylpyridine]
Ki [3]: 145 nM
inhibition of binding of [3H]methoxyPEPy to mGluR5 membranes [3]: fully inhibited
effect on glutamate concentration response curve (mGluR5 [2]): rightward and partial downward shift
effect on glutamate-induced calcium response (mGluR5 [2]): partially inhibited
maximal inhibition relative to that of MPEP (mGluR5 [2]): approximately 50%
block of MPEP-induced inhibition of the glutamate response (mGluR5 [2]; MPEP 50 nM): only partially blocked
rightward shift of concentration response curve compared to MPEP (mGluR5 [2]): approximately 10 fold
activation of mGluR5 when added alone (mGluR5 [2]): do not partially activate
maximal reduction of the response to glutamate (mGluR5 [2]): approximately 50%
antagonist activity across a range of concentrations (mGluR5 [2]): partial antagonist activity
IC50 (mGluR5 [2]): ~300 nM

Cc1cccc(C#Cc2ccccc2)n1 [MPEP, 2-methyl-6-(phenylethynyl)-pyridine, reference compound]
DHPG-induced depolarization in presence of MPEP ([1]; DHPG 100 μM + MPEP 10 μM): 6.15+0.82 mV
effect on glutamate-induced calcium response (mGluR5 [2]): fully blocked
inhibition of calcium response to nearly maximal glutamate (mGluR5 [2]; MPEP 50 nM): robust inhibition

Brc1ccc(C#Cc2ccccc2)nc1.Cl [YP260]
partial antagonist activity (FIG. 11) (mGluR5 [2]; similarly to the figures above): partial activities

3-(6-Methylpyridin-2-ylethynyl)-5-bromopyridine [Br-5MPEPy]
Ki [3]: 182 ± 50 nM
inhibition of binding of [3H]methoxyPEPy to mGluR5 membranes [3]: fully inhibited
effect on glutamate concentration response curve (mGluR5 [2]): rightward and partial downward shift
effect on glutamate-induced calcium response (mGluR5 [2]): partially inhibited
maximal inhibition relative to that of MPEP (mGluR5 [2]): approximately 50%
block of MPEP-induced inhibition of the glutamate response (mGluR5 [2]; MPEP 50 nM): only partially blocked
rightward shift of concentration response curve compared to MPEP (mGluR5 [2]): approximately 10 fold
activation of mGluR5 when added alone (mGluR5 [2]): do not partially activate
maximal reduction of the response to glutamate (mGluR5 [2]): approximately 50%
antagonist activity across a range of concentrations (mGluR5 [2]): partial antagonist activity
IC50 (mGluR5 [2]): ~300 nM

Fc1cccc(C=NN=Cc2cccc(F)c2)c1 [DFB, 3,3′-di fluorobenzaldazine, reference compound]
potentiation of response to suboptimal glutamate (mGluR5 [2]): potentiated

Cc1ccc(C#Cc2ccccc2)nc1 [5MPEP, 5-methyl-2-phenylethynyl-pyridine, reference compound]
DHPG-induced depolarization in presence of CDPPB and 5MPEP [1]: 7.05±0.82 mV
DHPG-induced depolarization in presence of MPEP and 5MPEP [1]: 14.28±2.1 mV
effect on membrane potential of STN neurons [1]: no effect
inhibition of mGluR5 receptor responses (mGluR5 [4]): completely inactive
effect on glutamate-induced calcium response (mGluR5 [2]): no inhibitory effect
effect on mGluR5 response to glutamate alone (mGluR5 [2]; 5MPEP 30 μM, suboptimal glutamate): does not alter
block of allosteric potentiator responses to DFB and CDPPB (mGluR5 [2]; 5MPEP 30 μM, DFB 30 μM or CDPPB 3 μM, suboptimal glutamate): completely blocks
Schild regression slope, 5MPEP versus MPEP (mGluR5 [2]; [5]): 1.076±0.0094 and 1.076±0.01
Schild x-intercept (mGluR5 [2]; [5]): −6.249
block of MPEP-induced inhibition of the glutamate response (mGluR5 [2]; MPEP 50 nM): fully blocked
Ki (mGluR5 [2]; extrapolated from Schild regression, read-out: Ki from Schild analysis (x-intercept)): 560 nM

N[C@H](C(=O)O)c1cc(O)cc(O)c1 [DHPG]
depolarization of STN neurons ([1]; DHPG 10 μM alone (submaximal)): 6.89 ± 1.22 mV
depolarization of STN neurons ([1]; DHPG 100 μM alone, TTX 500 nM): 14.82 ± 2.21 mV
